Measured values reported in US7495007B2, “Spiroindolinone derivatives” (Hoffmann-La Roche Inc., priority 2006, dated 2009).

target: interaction between p53 and MDM2 proteins (recombinant GST-tagged MDM2, p53 peptide) (Homo sapiens, UniProt Q00987); test: HTRF assay of inhibition of the p53-MDM2 interaction (GST-MDM2 binding to biotinylated p53 peptide); conditions: 0.02% BSA
Experimental: The ability of the compounds to inhibit the interaction between p53 and MDM2 proteins was measured by an HTRF (homogeneous time-resolved fluorescence) assay in which recombinant GST-tagged MDM2 binds to a peptide that resembles the MDM2-interacting region of p53 (Lane et al.). Binding of GST-MDM2 protein and p53-peptide (biotinylated on its N-terminal end) is registered by the FRET (fluorescence resonance energy transfer) between Europium (Eu)-labeled anti-GST antibody and streptavidin-conjugated Allophycocyanin (APC).
Test is performed in black flat-bottom 384-well plates (Costar) in a total volume of 40 uL containing: 90 nM biotinylate peptide, 160 ng/ml GST-MDM2, 20 nM streptavidin-APC (PerkinElmerWallac), 2 nM Eu-labeled anti-GST-antibody (PerkinElmerWallac), 0.2% bovine serum albumin (BSA), 1 mM dithiothreitol (DTT) and 20 mM Tris-borate saline (TBS) buffer as follows: Add 10 uL of GST-MDM2 (640 ng/ml working solution) in reaction buffer to each well. Add 10 uL diluted compounds (1:5 dilution in reaction buffer) to each well, mix by shaking. Add 20 uL biotinylated p53 peptide (180 nM working solution) in reaction buffer to each well and mix on shaker. Incubate at 37° C. for 1 h. Add 20 uL streptavidin-APC and Eu-anti-GST antibody mixture (6 nM Eu-anti-GST and 60 nM streptavidin-APC working solution) in TBS buffer with 0.2% BSA, shake at room temperature for 30 minutes and read using a TRF-capable plate reader at 665 and 615 nm (Victor 5, Perkin ElmerWallac). If not specified, the reagents were purchased from Sigma Chemical Co.

Sequence of interaction between p53 and MDM2 proteins (recombinant GST-tagged MDM2, p53 peptide) (Q00987 whole entry): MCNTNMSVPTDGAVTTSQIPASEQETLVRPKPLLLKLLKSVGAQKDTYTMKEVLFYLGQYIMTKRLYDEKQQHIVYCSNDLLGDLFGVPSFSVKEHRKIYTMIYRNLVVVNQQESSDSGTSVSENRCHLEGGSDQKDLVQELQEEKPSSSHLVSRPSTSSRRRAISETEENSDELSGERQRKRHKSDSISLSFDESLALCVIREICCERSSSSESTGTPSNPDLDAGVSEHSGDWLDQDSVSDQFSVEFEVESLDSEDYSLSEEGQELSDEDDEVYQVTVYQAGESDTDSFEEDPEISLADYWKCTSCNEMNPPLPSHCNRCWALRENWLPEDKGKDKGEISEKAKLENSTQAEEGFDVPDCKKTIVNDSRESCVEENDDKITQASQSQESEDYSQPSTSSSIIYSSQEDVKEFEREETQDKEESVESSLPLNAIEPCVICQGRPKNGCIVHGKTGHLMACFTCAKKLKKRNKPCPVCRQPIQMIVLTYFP

Row | SMILES | IC50
1 | O=C1C[C@H](C2CCCC2)[C@@]2(C(=O)Nc3cc(Cl)ccc32)[C@H](c2cccc(Cl)c2)N1 (racemic) [Example 5d, (2′S,3S,4′R)-6-chloro-2′-(3-chlorophenyl)-4′-cyclopentylspiro[3H-indole-3,3′-piperidine]-2,6′(1H)-dione] | 2.43 µM
2 | C[C@@H]1C(=O)N[C@H](c2cccc(Cl)c2)[C@@]2(C(=O)Nc3cc(Cl)ccc32)[C@@H]1c1cccc(Cl)c1 (racemic) [Example 20, (2′R,3R,4′S,5′S)-6-chloro-2′,4′-bis(3-chlorophenyl)-5′-methylspiro[3H-indole-3,3′-piperidine]-2,6′(1H)-dione] | 1.81 µM
3 | O=C1C[C@@H](c2cccc(Cl)c2)[C@]2(C(=O)Nc3cc(Cl)ccc32)[C@@H](c2ccccc2)N1 (racemic) [Example 14b, (2′R,3R,4′S)-6-chloro-4′-(3-chlorophenyl)-2′-phenylspiro[3H-indole-3,3′-piperidine]-2,6′(1H)-dione] | 0.44 µM

Now from value to compound:

Row | IC50 | SMILES
4 | 0.49 µM | CCN1C(=O)C[C@@H](c2cccc(Cl)c2)[C@]2(C(=O)Nc3cc(Cl)ccc32)[C@H]1c1ccccc1C (racemic) [Example 26b, (2′R,3R,4′S)-6-chloro-4′-(3-chlorophenyl)-1′-ethyl-2′-(2-methylphenyl)spiro[3H-indole-3,3′-piperidine]-2,6′(1H)-dione]
5 | 0.372 µM | Cc1ccccc1[C@H]1N(CC(=O)O)C(=O)C[C@@H](c2cccc(Cl)c2)[C@]12C(=O)Nc1cc(Cl)ccc12 (racemic) [Example 31, (2′R,3R,4′S)-6-chloro-4′-(3-chlorophenyl)-1′-[(hydroxycarbonyl)-methyl]-2′-(2-methylphenyl)spiro[3H-indole-3,3′-piperidine]-2,6′(1H)-dione]
